We go through one compound from patent publication US20050228016A1, “TETRAHYDROQUINOLINES FOR MODULATING THE EXPRESSION OF EXOGENOUS GENES VIA AN ECDYSONE RECEPTOR COMPLEX” (priority 2002, published 2005).

For series [1], the system named is GAL4 DBD-CfEcR(DEF)/VP16AD-MmRXRE. The note with it: CHO 13B3 clone, 48 h, average of two wells. The method in brief: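 CHO 13B3 clone stably expressing GAL4 DBD-CfEcR(DEF) and VP16AD-MmRXRE with GAL4 RE-luciferase reporter; ligands from DMSO stocks diluted 300-fold. Luciferase read 48 h after treatment; duplicate wells averaged, fold induction = RLU ligand-treated / RLU DMSO-treated.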

A further series has as its system CfEcR + LmUSP. The following applies: CfEcR + LmUSP in 3T3 cells, reporter assayed 48 h after ligand. A general note: In a reporter assay the amount or activity of a reporter protein is the signal.
Series [2] deals with T1, GAL4AaEcR-DEF/VP16HsRXRβ-EF (Aedes aegypti, UniProt P49880).
T1 construct: expressed in transfected cells; host or cells: mouse NIH3T3 cells
T1 sequence (P49880 405-776 limits assumed): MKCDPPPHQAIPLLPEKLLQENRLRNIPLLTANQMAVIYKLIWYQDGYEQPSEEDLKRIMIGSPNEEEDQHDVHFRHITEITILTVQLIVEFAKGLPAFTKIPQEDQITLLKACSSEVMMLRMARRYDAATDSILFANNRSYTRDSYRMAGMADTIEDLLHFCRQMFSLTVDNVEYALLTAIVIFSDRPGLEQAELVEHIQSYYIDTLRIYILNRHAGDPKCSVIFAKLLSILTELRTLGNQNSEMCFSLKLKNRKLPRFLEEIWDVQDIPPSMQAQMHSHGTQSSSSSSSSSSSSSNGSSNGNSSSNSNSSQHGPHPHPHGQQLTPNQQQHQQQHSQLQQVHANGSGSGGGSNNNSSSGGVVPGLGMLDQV
T1 sequence (P28702 299-533 partner limits assumed): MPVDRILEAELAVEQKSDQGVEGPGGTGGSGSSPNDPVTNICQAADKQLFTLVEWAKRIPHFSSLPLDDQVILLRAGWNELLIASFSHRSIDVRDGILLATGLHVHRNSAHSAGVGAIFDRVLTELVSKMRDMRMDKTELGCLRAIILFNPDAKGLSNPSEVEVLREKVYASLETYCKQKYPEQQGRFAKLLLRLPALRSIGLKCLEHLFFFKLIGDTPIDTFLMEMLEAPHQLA
Kind of series: Transactivation reporter assay, AaEcR based switch (1.4) in NIH3T3 cells. The note with it: mammalian cells; FIGS. 2-5. It is filed as cell-based. How it is done:
Total relative light units (RLU) are shown.
Twenty μl of lysate were assayed.

Description for CfEcR + LmUSP: 1.9—Gal4CfEcR-DEF/VP16LmRXR-EF: This construct was prepared in the same way as switch 1.1 except LmRXR-EF (SEQ ID NO: 18) was used in place of HsRXRβ-LmRXREF chimera.
To determine if any of the compounds shown in Table 1 and Table 2 can act as inducers of reporter gene activity in a transactivation assay, these compounds were tested in NIH3T3 cells transfected with pFRLUC reporter and gene expression cassettes, 1.1 to 1.8 described in Example 1. […] At 48 hr after adding ligand, the cells were harvested and reporter activity was assayed using Dual Luciferase assay kit (Promega carporation). Total relative light units (RLU) are shown. Standard methods for culture and maintenance of the cells were followed.
Transfections: DNAs corresponding to the various switch constructs outlined in Example I, specifically switches 1.1 through 1.8, were transfected into mouse NIH3T3 cells (ATCC) as follows. Cells were harvested when they reached 50% confluency and plated in 6-, 12- or 24-well plates at 125,000, 50,000, or 25,000 cells, respectively, in 2.5, 1.0, or 0.5 ml of growth medium containing 10% fetal bovine serum (FBS), respectively. The next day, the cells were rinsed with growth medium and transfected for four hours. […] For 12-well plates, 4 μl of Superfect™ was mixed with 100 μl of growth medium. 1.0 μg of reporter construct and 0.25 μg of each receptor construct of the receptor pair to be analyzed were added to the transfection mix. A second reporter construct was added [pTKRL (Promega), 0.1 μg/transfection mix] that comprises a Renilla luciferase gene operably linked and placed under the control of a thymidine kinase (TK) constitutive promoter and was used for normalization. The contents of the transfection mix were mixed in a vortex mixer and let stand at room temperature for 30 min. At the end of incubation, the transfection mix was added to the cells maintained in 400 μl growth medium. The cells were maintained at 37° C. and 5% CO2 for four hours. At the end of incubation, 500 μl of growth medium containing 20% FBS and either dimethylsulfoxide (DMSO; control) or a DMSO solution of 0.1, 1, and 10 μM ligand was added and the cells were maintained at 37° C. and 5% CO2 for 48 hours. The cells were harvested and reporter activity was assayed. The same procedure was followed for 6 and 24 well plates as well except all the reagents were doubled for 6 well plates and reduced to half for 24-well plates.
Ligands: All ligands were dissolved in DMSO and the final concentration of DMSO was maintained at 0.1% in both controls and treatments.
Reporter Assays: Cells were harvested 48 hours after adding ligands. 125, 250, or 500 μl of passive lysis buffer (part of Dual-luciferase™ reporter assay system from Promega Corporation) were added to each well of 24- or 12- or 6-well plates respectively. The plates were placed on a rotary shaker for 15 minutes. Twenty μl of lysate were assayed. Luciferase activity was measured using Dual-luciferase™ reporter assay system from Promega Corporation following the manufacturer's instructions.

For `C[C@H]1C[C@H](Nc2ccc(F)cc2)c2cc(F)ccc2N1C(=O)c1ccc(F)c(C(F)(F)F)c1` (relative stereo) [Compound I-5], the “Fold Induction Average, 13B3V1 Assay 33 μM” value in series [1] came to 1 fold. Further, in the series with CfEcR + LmUSP, the “Fold Induction (10 μM)” value is given as 69 fold. In series [2], the “Activity on AaEcR based switches” value is “very active”.
